Assay results taken from patent US20100048398A1, “HERBICIDAL COMBINATION” (SYNGENTA CROP PROTECTION, INC., priority 2006, published 2010).

How the values were obtained:
Assay in all cases: Glasshouse peri-emergence herbicide test, damage to plant
Assay type in all cases: in vivo
Conditions in all cases: sprayed six days after sowing (peri-emergence), evaluated after 14 days; rate gai/ha: Prosulfocarb 2400, Flumioxazin 20, combination 2400 + 20
[1] = test system: ALOMY = Alopecurus myosuroides
Protocol: (§1) Seeds of a variety of test species were sown in standard soil. After cultivation for six days (peri-emergence) under controlled conditions in a glasshouse (at 24/16° C., day/night; 14 hours light; 65% humidity), the plants were sprayed with an aqueous spray solution comprising the technical active ingredient(s). The test plants were then grown in a glasshouse under controlled conditions in a glasshouse (at 24/16° C., day/night; 14 hours light; 65% humidity) and watered twice daily. After 14 days, the test was evaluated (100=total damage to plant; 0=no damage to plant).

[2] = test system: APESV = Apera spica-venti
Protocol: as §1

AVEFA = Avena fatua = test system: AVEFA = Avena fatua
Protocol: as §1

GALAP = Galium aparine = test system: GALAP = Galium aparine
Protocol: as §1

HORVW = Hordeum vulgare = test system: HORVW = Hordeum vulgare
Protocol: as §1

[3] = test system: LOLMU = Lolium multiflorum
Protocol: as §1

POAAN = Poa annua = test system: POAAN = Poa annua
Protocol: as §1

TRZAW = Tritcum aestivum = test system: TRZAW = Tritcum aestivum
Protocol: as §1

[4] = test system: VERPE = Veronica persicae
Protocol: as §1

C#CCN1C(=O)COc2cc(F)c(N3C(=O)C4=C(CCCC4)C3=O)cc21 [Flumioxazin, flumioxazin]
damage to plant (100=total damage; 0=no damage), ALOMY [1]: 33 | damage to plant (100=total damage; 0=no damage), APESV [2]: 60 | damage to plant (100=total damage; 0=no damage), AVEFA (AVEFA = Avena fatua): 8 | damage to plant (100=total damage; 0=no damage), GALAP (GALAP = Galium aparine): 73 | damage to plant (100=total damage; 0=no damage), HORVW (HORVW = Hordeum vulgare): 0 | damage to plant (100=total damage; 0=no damage), LOLMU [3]: 0 | damage to plant (100=total damage; 0=no damage), POAAN (POAAN = Poa annua): 5 | damage to plant (100=total damage; 0=no damage), TRZAW (TRZAW = Tritcum aestivum): 8 | damage to plant (100=total damage; 0=no damage), VERPE [4]: 99

CCCN(CCC)C(=O)SCc1ccccc1 [Prosulfocarb, prosulfocarb]
damage to plant (100=total damage; 0=no damage), ALOMY [1]: 78 | damage to plant (100=total damage; 0=no damage), APESV [2]: 95 | damage to plant (100=total damage; 0=no damage), AVEFA (AVEFA = Avena fatua): 55 | damage to plant (100=total damage; 0=no damage), GALAP (GALAP = Galium aparine): 78 | damage to plant (100=total damage; 0=no damage), LOLMU [3]: 30 | damage to plant (100=total damage; 0=no damage), POAAN (POAAN = Poa annua): 0 | damage to plant (100=total damage; 0=no damage), VERPE [4]: 88
